# Experimental data: patent US20140155445A1, “Compounds and Methods for Treating Cancer and Diseases of the Central Nervous System” (Osta Biotechnologies Inc., priority 2007, published 2014)
# How the values were obtained:
# [1] = system: OVCAR-3 (human ovarian carcinoma); experiment: Ovarian carcinoma model OVCAR-3 in SCID mice; type: in vivo; conditions: QC-56 60 mg/kg/ip
# Source text: • Species and strain: […] OVCAR-3 (human ovarian carcinoma). […] Control groups received the vehicle alone.
# HO-2 (rat brain) = target: T1, HO-2 (rat brain) (Rattus norvegicus, UniProt P23711); experiment: HO enzymatic activity in rat brain microsomal fraction (CO formed from methemalbumin, gas chromatography); type: biochemical; conditions: rat brain microsomes; average ± standard deviation of replicate experiments; hydrochloride; read-out: IC50 HO-2 (rat brain)/μM
# T1 construct: brain microsomes were used as a source of HO-2; from tissue; host or cells: brain microsomal fraction of adult male Sprague-Dawley rats
# T1 sequence (P23711 1-315): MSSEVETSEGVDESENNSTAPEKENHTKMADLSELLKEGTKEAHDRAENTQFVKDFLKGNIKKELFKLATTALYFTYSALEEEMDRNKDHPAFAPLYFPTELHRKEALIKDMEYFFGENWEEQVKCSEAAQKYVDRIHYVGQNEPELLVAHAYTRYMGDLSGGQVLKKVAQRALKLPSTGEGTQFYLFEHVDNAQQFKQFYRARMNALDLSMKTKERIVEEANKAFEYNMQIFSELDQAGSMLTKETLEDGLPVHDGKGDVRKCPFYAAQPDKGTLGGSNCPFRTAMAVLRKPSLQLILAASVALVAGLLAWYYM
# rat C6 glioma cells = experiment: Cell proliferation, [3H]thymidine incorporation, rat C6 glioma cells; type: cell-based; conditions: 6.5 μM, 18 h, hHO-1-transfected rat C6 glioma cells; hydrochloride
# Procedure: Rat C6 glioma cells were cultivated in high glucose DMEM supplemented with 10% heat-inactivated fetal bovine serum, […], and penicillin-streptomycin (50 U/mL and 50 μg/mL, respectively). […] All cultures were incubated at 37° C. in humidified 95% air-5% CO2.
# Cells were seeded in 24-well plates at 1×10^6 cells/mL/well. Upon reaching >90% confluence, cells in each well were transiently transfected with 1.6 μg of plasmid DNA-Lipofectamine 2000 complex using Lipofectamine 2000 method according to manufacturer instructions (Invitrogen). 1.6 μg of plasmid DNA and 4 μL of Lipofectamine 2000 reagent were diluted individually in 100 μL opti-MEM I and incubated for 5 minutes at room temperature with gentle mixing. […]
# Cell proliferation was determined by [^3H]thymidine incorporation: Cells were plated in 24-well plates at 10^6 cells/mL/well in complete medium. […] The cells were trypsinized and collected, air-dried on 21 mm glass microfibre filters (Whatman International Ltd., Maidstone, England) and analyzed by scintillation counting in a Wallac-Liquid Scintillator Counter (Perkin Elmer Life Sciences, Boston, Mass., USA). [^3H]thymidine incorporation was expressed as counts per min (cpm) per mL.
# HO-1 (rat spleen) = target: T2, HO-1 (rat spleen) (Rattus norvegicus, UniProt P06762); experiment: HO enzymatic activity in rat spleen microsomal fraction (CO formed from methemalbumin, gas chromatography); type: biochemical; conditions: rat spleen microsomes; average ± standard deviation of replicate experiments; read-out: IC50 HO-1 (rat spleen)/μM
# T2 construct: Spleen microsomes were used as a source of HO-1; from tissue; host or cells: spleen microsomal fraction of adult male Sprague-Dawley rats
# T2 sequence (P06762 1-289): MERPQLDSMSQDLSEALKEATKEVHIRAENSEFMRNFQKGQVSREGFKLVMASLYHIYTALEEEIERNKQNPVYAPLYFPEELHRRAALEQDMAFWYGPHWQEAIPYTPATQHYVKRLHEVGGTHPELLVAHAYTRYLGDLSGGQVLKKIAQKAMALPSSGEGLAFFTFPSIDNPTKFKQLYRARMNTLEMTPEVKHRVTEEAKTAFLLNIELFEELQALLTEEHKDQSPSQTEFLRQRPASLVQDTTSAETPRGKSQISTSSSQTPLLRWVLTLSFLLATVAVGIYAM
smiles,measurement,setting,value
"Brc1ccc(CCC2(Cn3ccnc3)OCCO2)cc1.Cl [QC-56, 1-((2-(2-(4-Bromophenyl)ethyl)-1,3-dioxolan-2-yl)methyl)-1H-imidazole hydrochloride]",reduction of tumor growth,[1],approximately 15%
same,tumor size on the day of sacrifice,[1]; CDDP 3 mg/kg,1.12±0.08 cm^3
same,IC50,HO-2 (rat brain),≥ 100 µM
same,effect of hHO-1 transfection on 3H-thymidine incorporation,rat C6 glioma cells,significantly attenuated
same,IC50,HO-1 (rat spleen),1.9 ± 0.2 µM
